Active and inactive are the calls of the source.
How the values were obtained:
[1] = molecular target: T1, Tyrosine-protein phosphatase non-receptor type 5 (Homo sapiens, UniProt P54829); assay: STEP phosphatase inhibitors, confirmation, biochemical, fluorescence intensity, uHTS hits (AID 602372); type: functional; conditions: read-out: IC50_Mean
T1 sequence (P54829 whole entry): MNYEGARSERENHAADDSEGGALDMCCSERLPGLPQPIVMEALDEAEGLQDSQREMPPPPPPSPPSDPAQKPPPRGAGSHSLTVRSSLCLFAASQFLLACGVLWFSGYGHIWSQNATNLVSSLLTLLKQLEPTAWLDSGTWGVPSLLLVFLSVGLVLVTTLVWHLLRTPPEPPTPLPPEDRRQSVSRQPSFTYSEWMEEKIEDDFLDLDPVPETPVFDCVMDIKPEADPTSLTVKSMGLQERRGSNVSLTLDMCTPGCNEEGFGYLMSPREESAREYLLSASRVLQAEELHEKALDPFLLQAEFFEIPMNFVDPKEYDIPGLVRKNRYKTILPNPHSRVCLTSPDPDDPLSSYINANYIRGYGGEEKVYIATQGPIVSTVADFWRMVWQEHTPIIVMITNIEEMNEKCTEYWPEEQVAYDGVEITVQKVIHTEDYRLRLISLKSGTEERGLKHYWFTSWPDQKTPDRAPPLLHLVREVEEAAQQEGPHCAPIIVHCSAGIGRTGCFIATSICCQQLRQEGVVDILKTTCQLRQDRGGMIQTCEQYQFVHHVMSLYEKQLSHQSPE

[2] = molecular target: T2, Tyrosine-protein phosphatase non-receptor type 22 (Homo sapiens, UniProt Q9Y2R2); assay: LYP1 Fluorescent Assay using OMFP substrate for In Vitro dose response studies. [Related pubchem assays (depositor defined):AID1779, AID1784, AID435024]
T2 sequence (Q9Y2R2 whole entry): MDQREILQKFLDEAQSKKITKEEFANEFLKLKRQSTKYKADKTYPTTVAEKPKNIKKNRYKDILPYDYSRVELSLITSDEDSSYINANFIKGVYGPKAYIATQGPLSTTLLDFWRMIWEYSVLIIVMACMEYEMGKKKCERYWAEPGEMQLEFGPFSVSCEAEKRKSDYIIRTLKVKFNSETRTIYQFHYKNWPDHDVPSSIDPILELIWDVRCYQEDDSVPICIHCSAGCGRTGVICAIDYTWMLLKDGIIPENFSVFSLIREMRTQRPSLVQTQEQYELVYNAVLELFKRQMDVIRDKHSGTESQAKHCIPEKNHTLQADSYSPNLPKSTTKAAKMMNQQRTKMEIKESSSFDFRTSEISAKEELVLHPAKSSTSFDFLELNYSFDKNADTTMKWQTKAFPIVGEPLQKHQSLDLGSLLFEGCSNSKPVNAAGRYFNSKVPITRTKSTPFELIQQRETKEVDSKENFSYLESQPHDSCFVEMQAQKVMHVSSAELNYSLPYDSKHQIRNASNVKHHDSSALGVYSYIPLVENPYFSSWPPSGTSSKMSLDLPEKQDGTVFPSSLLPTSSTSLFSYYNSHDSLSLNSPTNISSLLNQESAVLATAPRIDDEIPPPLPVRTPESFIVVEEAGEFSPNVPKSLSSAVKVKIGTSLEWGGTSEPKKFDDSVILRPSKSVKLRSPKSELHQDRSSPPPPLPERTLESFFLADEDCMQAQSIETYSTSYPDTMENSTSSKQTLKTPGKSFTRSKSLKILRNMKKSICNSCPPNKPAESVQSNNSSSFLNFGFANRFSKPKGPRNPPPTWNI

[3] = molecular target: T3, Carboxy-terminal domain RNA polymerase II polypeptide A small phosphatase 1 (Homo sapiens, UniProt Q9GZU7); assay: inhibitors of CTDSP1, concentration-response testing, biochemical assay, absorbance-based, actives from ultra-high-throughput screening (AID 540297); type: functional
T3 sequence (Q9GZU7 whole entry): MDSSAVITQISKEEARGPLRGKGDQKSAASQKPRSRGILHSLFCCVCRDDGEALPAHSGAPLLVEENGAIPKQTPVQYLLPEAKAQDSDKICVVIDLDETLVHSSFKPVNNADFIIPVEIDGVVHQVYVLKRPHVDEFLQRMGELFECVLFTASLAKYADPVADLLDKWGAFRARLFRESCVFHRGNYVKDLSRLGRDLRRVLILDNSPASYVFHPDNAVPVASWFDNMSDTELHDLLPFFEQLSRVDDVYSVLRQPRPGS

[4] = molecular target: Small ubiquitin-related modifier 1 (Homo sapiens, UniProt P63165); assay: inhibitors of SUMO1 partner interactions, dose response, biochemical, FRET (AID 624383); type: functional; conditions: read-out: IC50_Mean
Insulin-degrading enzyme [5] = molecular target: T4, Insulin-degrading enzyme (Homo sapiens, UniProt P14735); assay: activators of recombinant IDE enzyme, dose response, counter-screen for IDE activator project, biochemical, fluorescence polarization (AID 588681)
T4 sequence (P14735 whole entry): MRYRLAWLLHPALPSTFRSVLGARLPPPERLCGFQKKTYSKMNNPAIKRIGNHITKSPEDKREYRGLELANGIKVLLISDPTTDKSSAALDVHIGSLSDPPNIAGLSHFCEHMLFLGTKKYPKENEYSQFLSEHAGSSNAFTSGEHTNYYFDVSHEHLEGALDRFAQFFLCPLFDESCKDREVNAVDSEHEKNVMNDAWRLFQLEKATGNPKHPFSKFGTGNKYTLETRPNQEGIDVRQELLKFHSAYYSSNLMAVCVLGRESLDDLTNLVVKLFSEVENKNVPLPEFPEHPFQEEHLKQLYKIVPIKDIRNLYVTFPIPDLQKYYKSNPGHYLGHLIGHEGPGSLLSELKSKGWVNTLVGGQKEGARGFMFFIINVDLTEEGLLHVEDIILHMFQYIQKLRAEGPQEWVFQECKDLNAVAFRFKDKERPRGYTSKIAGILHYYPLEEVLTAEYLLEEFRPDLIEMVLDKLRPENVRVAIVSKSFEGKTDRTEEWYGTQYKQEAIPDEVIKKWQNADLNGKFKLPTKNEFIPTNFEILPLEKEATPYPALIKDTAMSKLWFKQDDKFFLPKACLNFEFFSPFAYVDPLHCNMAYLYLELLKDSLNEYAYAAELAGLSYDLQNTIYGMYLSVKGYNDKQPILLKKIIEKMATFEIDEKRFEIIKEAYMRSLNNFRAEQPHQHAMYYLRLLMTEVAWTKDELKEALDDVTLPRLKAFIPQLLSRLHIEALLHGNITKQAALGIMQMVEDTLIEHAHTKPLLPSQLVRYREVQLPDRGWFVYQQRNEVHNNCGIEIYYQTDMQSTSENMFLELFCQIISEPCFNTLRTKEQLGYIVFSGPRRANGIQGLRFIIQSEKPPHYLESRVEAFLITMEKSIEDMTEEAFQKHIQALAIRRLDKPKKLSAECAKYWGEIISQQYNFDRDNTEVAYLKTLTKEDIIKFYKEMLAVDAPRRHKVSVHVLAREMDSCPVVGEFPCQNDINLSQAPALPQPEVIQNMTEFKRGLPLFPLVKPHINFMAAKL

Insulin-degrading enzyme [6] = molecular target: T4, Insulin-degrading enzyme; assay: activators of endogenous IDE in HEK cells, dose response, cell-based, fluorescence polarization (AID 588439); type: functional

Sequence of Small ubiquitin-related modifier 1 (P63165 whole entry): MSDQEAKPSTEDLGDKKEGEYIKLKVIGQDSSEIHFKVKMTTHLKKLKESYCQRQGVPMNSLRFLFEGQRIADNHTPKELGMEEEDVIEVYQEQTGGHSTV

For CCOC(=O)c1sc2nc3c(SCC(=O)O)cc(C(=O)c4ccccc4O)cn3c(=O)c2c1C, the IC50 [1] was 2.18 µM (active), the IC50 [2] was > 99 µM (inactive) and the IC50 [3] was 14.8 µM (active). The IC50 [4] was 6.2 µM (active).

For O=c1oc2c(O)cccc2cc1-c1nc2ccccc2[nH]1, the EC50 (Insulin-degrading enzyme [5]) was > 54.7 µM (inactive) and the EC50 (Insulin-degrading enzyme [6]) was > 54.7 µM (inactive).

— ChEMBL document CHEMBL1201862, “PubChem BioAssay data set” (2004)
